Results on five compounds are retold here after PubChem BioAssay AID1259407 (Chemical Carcinogenesis Research Information System (CCRIS), 2018).

The subject of this data set is CCRIS mutagenicity, Ames/micronucleus/aberration tests. The data set can be described thus: CCRIS mutagenicity studies.
Setting [1] is: Test System: AMES SALMONELLA TYPHIMURIUM, Strain/Indicator: TA98, Metabolic Activation: HAMSTER, LIVER, S-9, AROCLOR 1254 (10%), Method: PREINCUBATION
Setting [2] is: Test System: AMES SALMONELLA TYPHIMURIUM, Strain/Indicator: TA98, Metabolic Activation: NONE, Method: PREINCUBATION
Where [3] appears, read: Test System: AMES SALMONELLA TYPHIMURIUM, Strain/Indicator: TA98, Metabolic Activation: RAT, LIVER, S-9, AROCLOR 1254 (10%), Method: PREINCUBATION
Setting [4] is: Test System: AMES SALMONELLA TYPHIMURIUM, Strain/Indicator: TA100, Metabolic Activation: HAMSTER, LIVER, S-9, AROCLOR 1254 (10%), Method: PREINCUBATION
Where [5] appears, read: Test System: AMES SALMONELLA TYPHIMURIUM, Strain/Indicator: TA100, Metabolic Activation: NONE, Method: PREINCUBATION
The mark [6] stands for this setting: Test System: AMES SALMONELLA TYPHIMURIUM, Strain/Indicator: TA100, Metabolic Activation: RAT, LIVER, S-9, AROCLOR 1254 (10%), Method: PREINCUBATION
Where [7] appears, read: Test System: AMES SALMONELLA TYPHIMURIUM, Strain/Indicator: TA1535, Metabolic Activation: HAMSTER, LIVER, S-9, AROCLOR 1254 (10%), Method: PREINCUBATION
Where [8] appears, read: Test System: AMES SALMONELLA TYPHIMURIUM, Strain/Indicator: TA1535, Metabolic Activation: NONE, Method: PREINCUBATION
Where [9] appears, read: Test System: AMES SALMONELLA TYPHIMURIUM, Strain/Indicator: TA1535, Metabolic Activation: RAT, LIVER, S-9, AROCLOR 1254 (10%), Method: PREINCUBATION
[10] abbreviates: Test System: AMES SALMONELLA TYPHIMURIUM, Strain/Indicator: TA1537, Metabolic Activation: HAMSTER, LIVER, S-9, AROCLOR 1254 (10%), Method: PREINCUBATION
Where [11] appears, read: Test System: AMES SALMONELLA TYPHIMURIUM, Strain/Indicator: TA1537, Metabolic Activation: NONE, Method: PREINCUBATION
Where [12] appears, read: Test System: AMES SALMONELLA TYPHIMURIUM, Strain/Indicator: TA1537, Metabolic Activation: RAT, LIVER, S-9, AROCLOR 1254 (10%), Method: PREINCUBATION
[13] abbreviates: Test System: AMES SALMONELLA TYPHIMURIUM, Strain/Indicator: TA1538, Metabolic Activation: RAT, LIVER, S-9, AROCLOR 1254, Method: STANDARD PLATE.

Active and inactive are the calls of the source. The rule behind the calls is not given here.

With `CCCCC/C=C\C/C=C\CCCCCCCC(=O)O`, the mutagenic call was “inactive; negative” under setting [1]; “inactive; negative” (Test System: AMES SALMONELLA TYPHIMURIUM, Strain/Indicator: TA98, Metabolic Activation: HAMSTER, LIVER, S-9, AROCLOR 1254, Method: STANDARD PLATE); “inactive; negative” under setting [2]; “inactive; negative” (Test System: AMES SALMONELLA TYPHIMURIUM, Strain/Indicator: TA98, Metabolic Activation: NONE, Method: STANDARD PLATE); “inactive; negative” under setting [3]; “inactive; negative” (Test System: AMES SALMONELLA TYPHIMURIUM, Strain/Indicator: TA98, Metabolic Activation: RAT, LIVER, S-9, AROCLOR 1254, Method: STANDARD PLATE). Besides, the mutagenic call by setting is: under setting [4], “inactive; negative”; (Test System: AMES SALMONELLA TYPHIMURIUM, Strain/Indicator: TA100, Metabolic Activation: HAMSTER, LIVER, S-9, AROCLOR 1254, Method: STANDARD PLATE) “inactive; negative”; under setting [5], “inactive; negative”; (Test System: AMES SALMONELLA TYPHIMURIUM, Strain/Indicator: TA100, Metabolic Activation: NONE, Method: STANDARD PLATE) “inactive; negative”; under setting [6], “inactive; negative”; (Test System: AMES SALMONELLA TYPHIMURIUM, Strain/Indicator: TA100, Metabolic Activation: RAT, LIVER, S-9, AROCLOR 1254, Method: STANDARD PLATE) “inactive; negative”. Also, the mutagenic call was “inactive; negative” under setting [7]; “inactive; negative” (Test System: AMES SALMONELLA TYPHIMURIUM, Strain/Indicator: TA1535, Metabolic Activation: HAMSTER, LIVER, S-9, AROCLOR 1254, Method: STANDARD PLATE); “inactive; negative” under setting [8]; “inactive; negative” (Test System: AMES SALMONELLA TYPHIMURIUM, Strain/Indicator: TA1535, Metabolic Activation: NONE, Method: STANDARD PLATE); “inactive; negative” under setting [9]; “inactive; negative” (Test System: AMES SALMONELLA TYPHIMURIUM, Strain/Indicator: TA1535, Metabolic Activation: RAT, LIVER, S-9, AROCLOR 1254, Method: STANDARD PLATE). Moreover, the mutagenic call was “inactive; negative” under setting [10]; “inactive; negative” (Test System: AMES SALMONELLA TYPHIMURIUM, Strain/Indicator: TA1537, Metabolic Activation: HAMSTER, LIVER, S-9, AROCLOR 1254, Method: STANDARD PLATE); “inactive; negative” under setting [11]; “inactive; negative” (Test System: AMES SALMONELLA TYPHIMURIUM, Strain/Indicator: TA1537, Metabolic Activation: NONE, Method: STANDARD PLATE); “inactive; negative” under setting [12]; “inactive; negative” (Test System: AMES SALMONELLA TYPHIMURIUM, Strain/Indicator: TA1537, Metabolic Activation: RAT, LIVER, S-9, AROCLOR 1254, Method: STANDARD PLATE). The mutagenic call is, setting by setting: (Test System: AMES SALMONELLA TYPHIMURIUM, Strain/Indicator: TA1538, Metabolic Activation: HAMSTER, LIVER, S-9, AROCLOR 1254, Method: STANDARD PLATE) “inactive; negative”; (Test System: AMES SALMONELLA TYPHIMURIUM, Strain/Indicator: TA1538, Metabolic Activation: NONE, Method: STANDARD PLATE) “inactive; negative”; under setting [13], “inactive; negative”; (Test System: MOUSE LYMPHOMA, Strain/Indicator: L5178Y (TK+/TK-), Metabolic Activation: NONE, Method: SUSPENSION/PLATE) “inactive; negative. reevaluation of results: negative”; (Test System: MOUSE LYMPHOMA, Strain/Indicator: L5178Y (TK+/TK-), Metabolic Activation: RAT, LIVER, S-9, AROCLOR 1254, Method: SUSPENSION/PLATE) “inactive; negative. reevaluation of results: negative”.

As to `COc1ccc(O)c(C(C)(C)C)c1`, the mutagenic call by setting is: (Test System: AMES SALMONELLA TYPHIMURIUM, Strain/Indicator: TA97, Metabolic Activation: NONE, Method: PREINCUBATION) “inactive; negative”; (Test System: AMES SALMONELLA TYPHIMURIUM, Strain/Indicator: TA97, Metabolic Activation: RAT, LIVER, S-9, PCB, Method: PREINCUBATION) “inactive; negative”; under setting [2], “inactive; negative”; (Test System: AMES SALMONELLA TYPHIMURIUM, Strain/Indicator: TA98, Metabolic Activation: RAT, LIVER, S-9, PCB, Method: PREINCUBATION) “inactive; negative”; under setting [5], “inactive; negative”; (Test System: AMES SALMONELLA TYPHIMURIUM, Strain/Indicator: TA100, Metabolic Activation: RAT, LIVER, S-9, PCB, Method: PREINCUBATION) “inactive; negative”. In addition, the mutagenic call is “inactive; negative” (Test System: AMES SALMONELLA TYPHIMURIUM, Strain/Indicator: TA102, Metabolic Activation: NONE, Method: PREINCUBATION) and “inactive; negative” (Test System: AMES SALMONELLA TYPHIMURIUM, Strain/Indicator: TA102, Metabolic Activation: RAT, LIVER, S-9, PCB, Method: PREINCUBATION).

Consider `CC(=O)OO[N+](=O)[O-]`, for which the mutagenic call is “active; positive” (Test System: AMES SALMONELLA TYPHIMURIUM, Strain/Indicator: TA100, Metabolic Activation: NONE) and “active; positive” (Test System: AMES SALMONELLA TYPHIMURIUM, Strain/Indicator: TA100, Metabolic Activation: RAT, LIVER, S-9, AROCLOR 1254).

With `CC(C)(Br)C(Br)COP(=O)(OCC(Br)C(C)(C)Br)OCC(Br)C(C)(C)Br` (centres undefined), the mutagenic call (Test System: AMES SALMONELLA TYPHIMURIUM, Strain/Indicator: TA100, Metabolic Activation: RAT, LIVER, MICROSOMES, PHENOBARBITAL, Method: PREINCUBATION) is “inactive; negative” and the mutagenic call (Test System: AMES SALMONELLA TYPHIMURIUM, Strain/Indicator: TA100, Metabolic Activation: RAT, LIVER, MICROSOMES, Method: PREINCUBATION) was “inactive; negative”.

Turning to `COc1cc(-c2ccc(N/N=C3\C=C(S(=O)(=O)O)c4ccccc4C3=O)c(OC)c2)ccc1N/N=C1/C=C(S(=O)(=O)O)c2ccccc2C1=O`, the mutagenic call is, setting by setting: under setting [1], “inactive; negative”; under setting [2], “inactive; negative”; under setting [3], “inactive; negative”; under setting [4], “inactive; negative”; under setting [5], “inactive; negative”; under setting [6], “inactive; negative”. For the same compound, the mutagenic call reads like this: under setting [7], “inactive; negative”; under setting [8], “inactive; negative”; under setting [9], “inactive; negative”; under setting [10], “inactive; negative”; under setting [11], “inactive; negative”; under setting [12], “inactive; negative”. Besides, the mutagenic call under setting [13] was “inactive; negative”.
